Values quoted from earlier work as cited in US20250231185A1, “Coronavirus T Cell Epitopes, Megapools and Uses Thereof” (La Jolla Institute for Immunology, priority 2021, published 2025).

System: CD8+ T cells
Conditions: CD8R (D) megapool epitopes; dominant = recognized by 3 or more donors/different studies; cited from earlier work
In the case of 1691 (ATEGALNTPK) [compound 1691], the Dominant is listed as “Yes (more dominant epitopes are defined by being recognized by 3 or more donors/different studies)”.
In the case of 1696 (LLLDRLNQL) [compound 1696], the Dominant is given as “Yes (more dominant epitopes are defined by being recognized by 3 or more donors/different studies)”.
In the case of 1717 (KLFDRYFKY) [compound 1717], the Dominant is given as “Yes (more dominant epitopes are defined by being recognized by 3 or more donors/different studies)”.
In the case of 1814 (VFITLCFTLK) [compound 1814], the Dominant is given as “Yes (more dominant epitopes are defined by being recognized by 3 or more donors/different studies)”.
In the case of 1677 (AVILRGHLR) [compound 1677], the Dominant is listed as “Yes (more dominant epitopes are defined by being recognized by 3 or more donors/different studies)”.
In the case of 1815 (IMLIIFWFSL) [compound 1815], the Dominant is listed as “Yes (more dominant epitopes are defined by being recognized by 3 or more donors/different studies)”.
In the case of 1810 (HLVDFQVTI) [compound 1810], the Dominant is listed as “Yes (more dominant epitopes are defined by being recognized by 3 or more donors/different studies)”.
In the case of 1704 (MEVTPSGTW) [compound 1704], the Dominant is listed as “Yes (more dominant epitopes are defined by being recognized by 3 or more donors/different studies)”.
In the case of 1758 (KTIQPRVEK) [compound 1758], the Dominant is given as “Yes (more dominant epitopes are defined by being recognized by 3 or more donors/different studies)”.
In the case of 1805 (YLYALVYFL) [compound 1805], the Dominant is listed as “Yes (more dominant epitopes are defined by being recognized by 3 or more donors/different studies)”.
For 1683 (KFPRGQGVPI) [compound 1683], the Dominant is given as “Yes (more dominant epitopes are defined by being recognized by 3 or more donors/different studies)”.
In the case of 1718 (FVDGVPFVV) [compound 1718], the Dominant is given as “Yes (more dominant epitopes are defined by being recognized by 3 or more donors/different studies)”.
In the case of 1679 (ATSRTLSYYK) [compound 1679], the Dominant is listed as “Yes (more dominant epitopes are defined by being recognized by 3 or more donors/different studies)”.
In the case of 1797 (CTDDNALAYY) [compound 1797], the Dominant is listed as “Yes (more dominant epitopes are defined by being recognized by 3 or more donors/different studies)”.

Same assay, conditions: CD8RE megapool peptides (non-spike SARS-CoV-2 antigens); dominant epitope Yes/No; cited from earlier work
In the case of 2987 (LLLDDFVEII) [compound 2987], the Dominant is listed as “Yes (more dominant epitopes are defined by being recognized by 3 or more donors/different studies)”.
For 2990 (KMQRMLLEK) [compound 2990], the Dominant is given as “Yes (more dominant epitopes are defined by being recognized by 3 or more donors/different studies)”.
In the case of 3014 (VRIQPGQTF) [compound 3014], the Dominant is listed as “Yes (more dominant epitopes are defined by being recognized by 3 or more donors/different studies)”.
For 2939 (MEVTPSGTW) [compound 2939], the Dominant is listed as “Yes (more dominant epitopes are defined by being recognized by 3 or more donors/different studies)”.
In the case of 2978 (AIMTRCLAV) [compound 2978], the Dominant is given as “Yes (more dominant epitopes are defined by being recognized by 3 or more donors/different studies)”.
For 2981 (SYATHSDKF) [compound 2981], the Dominant is listed as “Yes (more dominant epitopes are defined by being recognized by 3 or more donors/different studies)”.
In the case of 3035 (MDLFMRIFTI) [compound 3035], the Dominant is listed as “Yes (more dominant epitopes are defined by being recognized by 3 or more donors/different studies)”.
In the case of 3007 (STFNVPMEK) [compound 3007], the Dominant is listed as “Yes (more dominant epitopes are defined by being recognized by 3 or more donors/different studies)”.
In the case of 2955 (RQLLFVVEV) [compound 2955], the Dominant is given as “Yes (more dominant epitopes are defined by being recognized by 3 or more donors/different studies)”.
For 2986 (KVDGVDVEL) [compound 2986], the Dominant is listed as “Yes (more dominant epitopes are defined by being recognized by 3 or more donors/different studies)”.
For 2918 (KFPRGQGVPI) [compound 2918], the Dominant is listed as “Yes (more dominant epitopes are defined by being recognized by 3 or more donors/different studies)”.
In the case of 2927 (NPANNAAIVL) [compound 2927], the Dominant is given as “Yes (more dominant epitopes are defined by being recognized by 3 or more donors/different studies)”.
For 2947 (TVLSFCAFAV) [compound 2947], the Dominant is given as “Yes (more dominant epitopes are defined by being recognized by 3 or more donors/different studies)”.
For 2996 (FGDDTVIEV) [compound 2996], the Dominant is listed as “Yes (more dominant epitopes are defined by being recognized by 3 or more donors/different studies)”.
In the case of 2912 (AVILRGHLR) [compound 2912], the Dominant is listed as “Yes (more dominant epitopes are defined by being recognized by 3 or more donors/different studies)”.
For 2945 (FSKQLQQSM) [compound 2945], the Dominant is listed as “Yes (more dominant epitopes are defined by being recognized by 3 or more donors/different studies)”.
In the case of 3048 (KLFIRQEEV) [compound 3048], the Dominant is given as “Yes (more dominant epitopes are defined by being recognized by 3 or more donors/different studies)”.
For 3039 (ALSKGVHFV) [compound 3039], the Dominant is given as “Yes (more dominant epitopes are defined by being recognized by 3 or more donors/different studies)”.

Same assay, conditions: SARS-CoV-2-derived CD8 epitopes; dominant = recognized by 3 or more donors/different studies; cited from earlier work
For 629 (TDNYITTY) [compound 629], the Dominant is given as “Yes (more dominant epitopes are defined by being recognized by 3 or more donors/different studies)”.
In the case of 687 (CTEIDPKLDNY) [compound 687], the Dominant is given as “Yes (more dominant epitopes are defined by being recognized by 3 or more donors/different studies)”.
For 678 (SAPPAQYEL) [compound 678], the Dominant is given as “Yes (more dominant epitopes are defined by being recognized by 3 or more donors/different studies)”.
For 501 (LSPRWYFYYL) [compound 501], the Dominant is listed as “Yes (more dominant epitopes are defined by being recognized by 3 or more donors/different studies)”.
In the case of 519 (LLLLDRLNQL) [compound 519], the Dominant is listed as “Yes (more dominant epitopes are defined by being recognized by 3 or more donors/different studies)”.
In the case of 514 (VLQLPQGTTL) [compound 514], the Dominant is listed as “Yes (more dominant epitopes are defined by being recognized by 3 or more donors/different studies)”.

Same assay, conditions: SARS-CoV-2 Ag S; T cell type recognizing the epitope; cited from earlier work
In the case of 1334 (YQDVNCTEV) [compound 1334], the Restriction is listed as “CD8”.
In the case of 1399 (IANQFNSAI) [compound 1399], the Restriction is given as “CD8”.
For 1419 (SKRVDFCGKGY) [compound 1419], the Restriction is listed as “CD8”.
For 1359 (IPTNFTISV) [compound 1359], the Restriction is given as “CD8”.
In the case of 1432 (HVTYVPAQEK) [compound 1432], the Restriction is given as “CD8”.
In the case of 1387 (LTDEMIAQYT) [compound 1387], the Restriction is listed as “CD8”.
In the case of 1331 (TPCSFGGVSV) [compound 1331], the Restriction is listed as “CD8”.
For 1369 (TQLNRALTGI) [compound 1369], the Restriction is listed as “CD8”.
In the case of 1460 (QYIKWPWYIW) [compound 1460], the Restriction is listed as “CD8”.
In the case of 1426 (QSAPHGVVF) [compound 1426], the Restriction is listed as “CD8”.
In the case of 1312 (NGVEGFNCY) [compound 1312], the Restriction is given as “CD8”.
For 1417 (AEIRASANL) [compound 1417], the Restriction is listed as “CD8”.
For 1339 (RVYSTGSNVF) [compound 1339], the Restriction is listed as “CD8”.
For 1391 (WTFGAGAAL) [compound 1391], the Restriction is listed as “CD8”.
In the case of 1412 (ITGRLQSLQTY) [compound 1412], the Restriction is listed as “CD8”.
In the case of 1357 (NSIAIPTNF) [compound 1357], the Restriction is given as “CD8”.

Same assay, conditions: T cell subset (CD4 or CD8) recognizing the SARS-CoV-2-derived epitope; cited from earlier work
For 629 (TDNYITTY) [compound 629], the Restriction is given as “CD8”.
For 687 (CTEIDPKLDNY) [compound 687], the Restriction is listed as “CD8”.
For 522 (KSAAEASKK) [compound 522], the Restriction is listed as “CD8”.
For 678 (SAPPAQYEL) [compound 678], the Restriction is listed as “CD8”.
For 641 (TISLAGSYK) [compound 641], the Restriction is listed as “CD8”.
For 684 (DVFYKENSY) [compound 684], the Restriction is listed as “CD8”.
In the case of 564 (IPVAYRKVLL) [compound 564], the Restriction is given as “CD8”.
For 500 (MKDLSPRWY) [compound 500], the Restriction is given as “CD8”.
For 663 (FLGRYMSAL) [compound 663], the Restriction is listed as “CD8”.
For 640 (VSSPDAVTAY) [compound 640], the Restriction is listed as “CD8”.
In the case of 503 (YLGTGPEAGL) [compound 503], the Restriction is listed as “CD8”.
In the case of 511 (GTRNPANNA) [compound 511], the Restriction is given as “CD8”.
For 601 (MELTPVVQTI) [compound 601], the Restriction is given as “CD8”.
In the case of 608 (EAKKVKPTV) [compound 608], the Restriction is given as “CD8”.
In the case of 572 (VRSIFSRTL) [compound 572], the Restriction is listed as “CD8”.
For 501 (LSPRWYFYYL) [compound 501], the Restriction is given as “CD8”.
In the case of 519 (LLLLDRLNQL) [compound 519], the Restriction is listed as “CD8”.
In the case of 600 (LEMELTPVV) [compound 600], the Restriction is listed as “CD8”.
For 578 (EIKESVQTF) [compound 578], the Restriction is listed as “CD8”.
For 514 (VLQLPQGTTL) [compound 514], the Restriction is listed as “CD8”.
In the case of 508 (IIWVATEGA) [compound 508], the Restriction is listed as “CD8”.
For 526 (RRGPEQTQGNF) [compound 526], the Restriction is listed as “CD8”.
For 699 (VVAIDYKHY) [compound 699], the Restriction is listed as “CD8”.

Same assay, conditions: T cell type (CD4 or CD8) recognizing the SARS-CoV-2 epitope; cited from earlier work
In the case of 990 (TSSGDATTAY) [compound 990], the Restriction is listed as “CD8”.
For 954 (NLHSSRLSF) [compound 954], the Restriction is listed as “CD8”.
For 928 (YFVVKRHTF) [compound 928], the Restriction is given as “CD8”.
In the case of 932 (TLKEILVTY) [compound 932], the Restriction is listed as “CD8”.
For 918 (VPANSTVL) [compound 918], the Restriction is listed as “CD8”.
In the case of 1001 (LVKQGDDYVY) [compound 1001], the Restriction is given as “CD8”.
In the case of 1073 (TTLPVNVAF) [compound 1073], the Restriction is listed as “CD8”.
For 1017 (AMYTPHTVL) [compound 1017], the Restriction is given as “CD8”.
For 1002 (KQGDDYVYL) [compound 1002], the Restriction is listed as “CD8”.
In the case of 1050 (MYKGLPWNV) [compound 1050], the Restriction is listed as “CD8”.
In the case of 1058 (LLADKFPVL) [compound 1058], the Restriction is given as “CD8”.
For 1070 (NTFTRLQSL) [compound 1070], the Restriction is given as “CD8”.
In the case of 1088 (LPKGIMMNV) [compound 1088], the Restriction is listed as “CD8”.
For 934 (VENPDILRV) [compound 934], the Restriction is given as “CD8”.
In the case of 999 (LYYQNNVFM) [compound 999], the Restriction is given as “CD8”.
For 950 (KIFVDGVPFV) [compound 950], the Restriction is given as “CD8”.
